According to patent US20030144347A1, “Method for treating autoimmune disease” (priority 2001, published 2003):

How the values were obtained:
[1] = test system: patient suffering from rheumatoid arthritis; test: Case reports: patients suffering from rheumatoid arthritis; format: in vivo, human
Description: A patient suffering from rheumatoid arthritis was administered 25 mg per day of topiramate with an increase every 10 days by 25 mg until 25 mg, 3 times per day, was achieved. The patient previously took 3 or 4 tablets per day of lortab, seven 2.5 mg tablets of methotrexate once a week, 200 mg per day of minocycline and 10 mg per day of prednisone.
An adolescent patient suffering from rheumatoid arthritis began taking 15 mg per day of topiramate for one week, which was then increased by 15 mg weekly until 45 mg per day, in three divided dosages of 15 mg each, was reached. The patient previously took 3 to 5 mg of prednisone daily.
A patient suffering from rheumatoid arthritis with a positive rheumatic factor about 3 decades earlier, at which time they also experienced polyarthritis and Renaud's phenomena, was treated with prednisone 40 mg per day for six months and was then weaned off the prednisone after one year. In the ensuing years, psoriasis developed on both elbows which was worse in the winter. They were an avid golfer and experienced painful swelling and stiffness of both wrists and hands, especially the left, and back pain and stiffness. […] They were begun on Topamax 15 mg a day which was increased weekly by 15 mg until 45 mg per day was taken in divided doses.

[2] = test system: patient suffering from psoriatic arthritis; test: Case reports: patients suffering from psoriatic arthritis; format: in vivo, human
Description: A patient suffering from psoriatic arthritis began taking 15 mg per day of topiramate. […] When the dose was increased slightly to 25 mg twice a day, the patient realized they were experiencing minimal pain and resumed garden work using a rototiller for the first time in two years. These benefits have continued for more than five months at this dose. […] This has continued for more than ten months. A patient suffering from psoriatic arthritis began taking 25 mg per day of topiramate. The dosage was increased each week until […] was achieved. […] The patient was stabilized at 25 mg, twice a day, for convenience. Their benefits from topiramate have continued for almost five months.

[3] = test system: patient suffering from ulcerative colitis; test: Case reports: patients suffering from ulcerative colitis; format: in vivo, human; conditions: Example 9
Description: A patient suffering from ulcerative colitis began taking 25 mg per day of topiramate, with dosage increases of 25 mg/day each week. […] By the end of nine months, the patient's weight was decreased to 270 lbs from 315 lbs. Their disease was no longer affecting their ability to go to or stay at work. Their colonoscopy exam was negative for the first time since the onset of their illness.

[4] = test system: patient suffering from systemic lupus erythematosis; test: Case report: patient suffering from systemic lupus erythematosis; format: in vivo, human; conditions: Example 11
Description: A young adolescent patient suffering from systemic lupus erythematosis and taking 30 mg bid of prednisone began taking 15 mg per day of topiramate. […] The prednisone was reduced to 25 mg per day after 4 weeks and to 10 mg after 6 weeks. This benefit has continued for over 6 months.

[5] = test system: patient suffering from psoriasis; test: Case reports: patients suffering from psoriasis; format: in vivo, human
Description: A patient suffering from psoriasis began taking 15 mg per day of topiramate for seven days, which was increased by 15 mg per day until reaching a dose of 45 mg/day in equally divided doses.

[6] = test system: patient with rapid mood swings and severe intense itching; test: Case report: patient with rapid mood swings and severe intense itching; format: in vivo, human; conditions: Example 19; 12.5 mg at bedtime increased weekly until 50 mg
Description: A patient presented with rapid mood swings and a complaint of severe intense itching from clothing tags and some clothing, which began over twenty years ago. They were begun on gabapenten which was increased to 300 mg qid. […] Their itching was unchanged. They were begun on Topamax 12.5 mg at bedtime which was increased weekly by 12.5 mg until 50 mg.

[7] = test system: patient with eosinophilic gastroenteritis; test: Case report: patient with recurrent eosinophilic gastroenteritis; format: in vivo, human; conditions: Example 20; 7.5 mg every three days then 7.5 mg every other day; withdrawn from prednisone
Description: A patient presented depressed related to a 15 pound weight gain following a recurrent of eosinophilic gastroenteritis treated with 20 mg of prednisone. This was their third bout in two years, all confirmed by a stomach biopsy. Each recurrence began between four and five months after being withdrawn from steroids, which had caused physical side effects and suspiciousness. A trial of Topamax 7.5 mg every three days and then 7.5 mg every other day was begun.

[8] = test system: animal model of kindled epilepsy; conditions: cited from earlier work
[9] = Example 6, 25 mg per day, 4 weeks

## CC1(C)O[C@@H]2[C@@H](CO[C@@]3(COS(N)(=O)=O)OC(C)(C)O[C@@H]23)O1 [topiramate, 2,3:4,5-bis-O-(1-methylethylidence)-β-D-fructopyranose sulfamate]
[1]; Example 3
  duration of benefit: 15 weeks
[1]; Example 3, 25 mg, 3 times per day
  mobility: increased mobility
[1]; Example 3, 25 mg, 3 times per day, lortab and minocycline discontinued, prednisone and methotrexate reduced
  pain (patient reported): significant decrease in pain
[1]; Example 4, adolescent patient, 15 mg twice a day
  decrease in pain: 40-50%
[1]; Example 4, adolescent patient, 45 mg per day
  reduction in pain: 70%
[1]; Example 4, prednisone decreased to 0.5 mg/day
  duration of benefits: four
[1]; Example 17, 45 mg per day in divided doses
  psoriasis: improvement in their psoriasis
[1]; Example 17, 45 mg per day in divided doses, decreased from 6
  joint pain in both hands, self-rating scale of 0 to 10: 2
[2]; Example 5, 15 mg every morning and 30 mg every evening, after one month
  getting out of bed: able to more easily get out of bed
[2]; Example 5, 15 mg twice per day
  skin lesions and joint pain: some improvement in skin lesions and decreased joint pain
[2]; Example 5, 25 mg twice a day
  duration of benefits: more than five
  pain: minimal pain
[2]; Example 6, 7.5 mg twice a day
  duration of improvement: more than ten
[2]; [9]
  adverse effect: severe lethargy
  middle knuckle swelling: significant reduction and almost total disappearance
[2]; Example 6, dose reduced to 7.5 mg twice a day
  course of improvement: improvement continued
[2]; Example 7, 25 mg, twice a day
  duration of benefits: five
[2]; Example 7, 45 mg per day
  pain and mobility: significant decrease in pain and greater mobility
[3]
  colonoscopy exam: negative
[3]; 50 mg twice a day
  symptoms: decreased intensity of symptoms
[3]; 75 mg twice a day
  symptoms: decreased frequency of symptoms
[3]; 100 mg twice a day, asakol dosage reduced
  diarrhea: diarrhea had stopped
[4]; 15 mg in the morning and 30 mg every evening
  clinical change: further improvement
[4]; 15 mg per day, after seven days
  clinical change: minimal change
[4]; 15 mg twice a day
  carbohydrate craving: markedly reduced
  facial and body rash, headaches, joint pain: began to subside, headaches disappeared and joint pain greatly diminished
[4]; 15 mg twice a day, over the next two weeks
  energy and mood: striking improvement in energy and mood
[4]; prednisone reduced to 10 mg
  duration of benefit: over 6 months
[5]; Example 12
  time at which PASI decrease was maintained: 16 weeks
[5]; Example 12, 25 mg bid, within 8 weeks, from 12.2
  psoriasis area and severity index (PASI): 5.4
[5]; Example 12, after 10 days at 45 mg
  lesions: began to decrease
[5]; Example 16, 15 mg every other day
  lesions: minimal improvement
[5]; Example 16, 15 mg per day for 7 days
  lesions: some improvement
[5]; Example 16, 30 mg/day in divided dosages
  lesions: began to get worse
[5]; Example 16, 45 mg/day in divided doses
  lesions: clear deterioration
[5]; Example 16, 60 mg per day
  lesions: new lesions were occurring
[5]; Example 16, within the first eight weeks, judged to be unchanged
  PASI: 29.1
[6]
  itching: no itching at all
  mood: true stabilization of my mood
[7]
  time without recurrence of symptoms: 19 months
[8]
  seizures: effectively block seizures
